Experimental data published in the supplement of paper PMC11061612.

Experiments:
Assay in all cases: Bliss excess, mean over the matrix (fraction); higher = more synergy
[1] = system: A4-Fuk (B-Lymphoblastic Leukemia)
How it was run: (§1)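 Bliss excess equals the observed combination effect minus the expected value EA + EB − EA·EB, where EA and EB are the effects of each agent alone. Combination Emax is the second-highest inhibition within the matrix. Inhibition was scaled from CellTiter-Glo 2.0 luminescence, with 0 set by vehicle wells and 1 by blank wells, after 72 hours of two-drug dosing of cells plated in 1536-well plates.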

[2] = system: COLO-668 (Small Cell Lung Carcinoma)
How it was run: as §1

COLO-679 (Melanoma) = system: COLO-679 (Melanoma)
How it was run: as §1

[3] = system: EJM (Plasma Cell Myeloma)
How it was run: as §1

[4] = system: G-401 (Other Solid Carcinomas)
How it was run: as §1

[5] = system: HCC1500 (Breast Carcinoma)
How it was run: as §1

[6] = system: HCC1937 (Breast Carcinoma)
How it was run: as §1

Hey (Ovarian Carcinoma) = system: Hey (Ovarian Carcinoma)
How it was run: as §1

[7] = system: KGN (Other Solid Carcinomas)
How it was run: as §1

[8] = system: KMRC-1 (Kidney Carcinoma)
How it was run: as §1

[9] = system: ML-2 (Acute Myeloid Leukemia)
How it was run: as §1

[10] = system: MOLT-4 (T-Lymphoblastic Leukemia)
How it was run: as §1

[11] = system: MV-4-11 (Acute Myeloid Leukemia)
How it was run: as §1

[12] = system: Mo-T (Other Blood Carcinomas)
How it was run: as §1

[13] = system: NCI-H1092 (Small Cell Lung Carcinoma)
How it was run: as §1

[14] = system: NCI-H1355 (Lung Adenocarcinoma)
How it was run: as §1

[15] = system: NCI-H1993 (Lung Adenocarcinoma)
How it was run: as §1

[16] = system: SK-LU-1 (Lung Adenocarcinoma)
How it was run: as §1

[17] = system: SKN (Other Solid Carcinomas)
How it was run: as §1

[18] = system: SNU-387 (Hepatocellular Carcinoma)
How it was run: as §1

SMILES | Bliss excess [1] | Bliss excess [2] | Bliss excess (COLO-679 (Melanoma)) | Bliss excess [3] | Bliss excess [4] | Bliss excess [5] | Bliss excess [6] | Bliss excess (Hey (Ovarian Carcinoma)) | Bliss excess [7] | Bliss excess [8] | Bliss excess [9] | Bliss excess [10] | Bliss excess [11] | Bliss excess [12] | Bliss excess [13] | Bliss excess [14] | Bliss excess [15] | Bliss excess [16] | Bliss excess [17] | Bliss excess [18]
C=CCn1c(=O)c2cnc(Nc3ccc(N4CCN(C)CC4)cc3)nc2n1-c1cccc(C(C)(C)O)n1 [AZD1775] + C[C@@H]1COCCN1C2=NC(=NC(=C2)C3(CC3)[S@](=N)(=O)C)C4=C5C=CNC5=NC=C4 [AZD6738] (first compound max 1 µM, partner max 10 µM) | -0.0203 | 0.0917 | -0.0995 | -0.0079 | -0.0293 | 0.0279 | -0.0717 | 0.0385 | -0.0578 | -0.002 | 0.0095 | 0.0397 | -0.0103 | -0.0271 | 0.0124 | 0.0055 | -0.0727 | -0.0774 | -0.0185 | -0.0302
C=CCn1c(=O)c2cnc(Nc3ccc(N4CCN(C)CC4)cc3)nc2n1-c1cccc(C(C)(C)O)n1 [AZD1775] + O=C(c1cc(Cc2n[nH]c(=O)c3ccccc23)ccc1F)N1CCN(C(=O)C2CC2)CC1 [Olaparib] (first compound max 1 µM, partner max 10 µM) | -0.0794 | 0.0104 | -0.0076 | -0.0429 | -0.0999 | 0.0158 | -0.0813 | -0.0327 | -0.0844 | -0.0224 | 0.0099 | 0.0101 | 0.0445 | -0.0418 | -0.0342 | -0.0671 | -0.0631 | -0.0306 | -0.0048 | -0.075
CCN(CCO)CCCOc1ccc2c(Nc3cc(CC(=O)Nc4cccc(F)c4)[nH]n3)ncnc2c1 [AZD2811] + C=CCn1c(=O)c2cnc(Nc3ccc(N4CCN(C)CC4)cc3)nc2n1-c1cccc(C(C)(C)O)n1 [AZD1775] (first compound max 1 µM, partner max 1 µM) | -0.0665 | 0.0144 | -0.0325 | -0.0443 | 0.0421 | -0.0098 | -0.0331 | 0.0154 | -0.0196 | 0.0036 | -0.102 | 0.0151 | -0.0626 | -0.0252 | -0.0183 | -0.0067 | 0.0219 | -0.0132 | -0.0278 | -0.0155
CCN(CCO)CCCOc1ccc2c(Nc3cc(CC(=O)Nc4cccc(F)c4)[nH]n3)ncnc2c1 [AZD2811] + C[C@@H]1COCCN1C2=NC(=NC(=C2)C3(CC3)[S@](=N)(=O)C)C4=C5C=CNC5=NC=C4 [AZD6738] (first compound max 1 µM, 7x7, partner max 10 µM) | -0.008 | -0.038 | -0.103 | -0.0286 | -0.0518 | -0.007 | -0.0972 | -0.0498 | -0.0854 | -0.042 | -0.0428 | -0.0208 | -0.0118 | -0.0188 | -0.0308 | -0.112 | -0.0726 | -0.0586 | -0.0432 | -0.0864
CCN(CCO)CCCOc1ccc2c(Nc3cc(CC(=O)Nc4cccc(F)c4)[nH]n3)ncnc2c1 [AZD2811] + O=C(c1cc(Cc2n[nH]c(=O)c3ccccc23)ccc1F)N1CCN(C(=O)C2CC2)CC1 [Olaparib] (first compound max 1 µM, 7x7, partner max 10 µM) | -0.0212 | -0.0032 | -0.0569 | 0.0335 | 0.0174 | 0.0231 | -0.0059 | 0.0251 | -0.0152 | -0.015 | -0.0595 | -0.0029 | -0.0339 | -0.027 | -0.0196 | 0.0006 | -0.0211 | -0.0373 | -0.0168 | -0.0755
CN(CCO)CC[C@H](CSc1ccccc1)Nc1ccc(S(=O)(=O)NC(=O)c2ccc(N3CCC([C@@H](O)c4ccccc4-c4ccc(Cl)cc4)CC3)cc2)cc1S(=O)(=O)C(F)(F)F [AZD4320] + CN(C)CCCOc1ccc(-c2ccc3ncc4c(c3c2)n(C2CCOCC2)c(=O)n4C)cn1 [AZD0156] (first compound max 1 µM, 7x7, partner max 1 µM) | -0.0077 | 0.0435 | -0.068 | 0.0079 | -0.0506 | 0.0352 | 0.0007 | -0.0272 | -0.0231 | -0.0245 | -0.0056 | 0.0052 | -0.034 | -0.0982 | -0.0078 | -0.0888 | -0.0734 | -0.0759 | -0.0296 | -0.0208
COc1nnc2ccc(N3CCC(c4ccc(OCCN5CCN(C)C(=O)[C@H]5C)cc4)CC3)nn12 [AZD5153] + C=CCn1c(=O)c2cnc(Nc3ccc(N4CCN(C)CC4)cc3)nc2n1-c1cccc(C(C)(C)O)n1 [AZD1775] (first compound max 1 µM, partner max 1 µM) | -0.109 | -0.0349 | -0.042 | 0.0229 | -0.0526 | 0.0305 | -0.0921 | -0.0997 | -0.12 | -0.0108 | -0.0214 | 0.0171 | -0.0114 | -0.0532 | 0.0051 | 0.0155 | -0.0758 | -0.0461 | -0.0027 | -0.107
